Experimental data taken from US20240308968A1, “FUNGICIDAL SUBSTITUTED HETEROCYCLES” (FMC Corporation, priority 2021, published 2024).

Legend:
Format in all cases: in vivo
Settings in all cases: 100 = 100% disease control, 0 = no control
Phakopsora pachyrhizi = assay: Test D: preventive spray on soybean seedlings, Asian soybean rust disease rating
Method in brief: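 Seedlings of soybean were challenged with rust spores one day after a run-off spray of test suspension (acetone/water 50/50, 50–250 ppm PEG400); after 24 h saturated humidity and 8 days growth, both at 22° C, disease was scored visually.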

[1] = tested on: Puccinia recondita f. sp. Tritici; assay: Test B: preventive spray on wheat seedlings, wheat leaf rust disease rating
Method in brief: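 Preventive test: one day after spraying wheat seedlings to run-off with ppm suspensions (acetone/water 1:1, 50-250 ppm PEG400), leaf rust spores were applied. Incubation was 24 h at saturation then 7 days at 20° C.; disease scored 0-100% control relative to untreated.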

[2] = tested on: Blumeria graminis f. sp. Tritici; assay: Test C: preventive spray on wheat seedlings, wheat powdery mildew disease rating
Method in brief: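 Disease control scored visually after 8 days at 20° C, on a 0–100 scale versus untreated controls. Seedlings had received a preventive run-off spray one day before dusting with powdery mildew spores; compounds were suspended in acetone/water (50/50) containing 50–250 ppm PEG400.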

Zymoseptoria tritici = assay: Test A: preventive spray on wheat seedlings, wheat leaf blotch disease rating
Method in brief: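 Disease scored after 17 days in a 20 °C growth chamber, following 48 h at 24 °C in saturated air after spore inoculation with Z. tritici. Inoculation came one day after wheat seedlings were sprayed to run-off with test suspension (acetone/water 50/50, 50–250 ppm PEG400).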

Alternaria solani = assay: Test F: preventive spray on tomato seedlings, tomato early blight disease rating
Method in brief: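 Preventive test: a day after run-off spraying with acetone/water–PEG400 suspensions (ppm), seedlings received an A. solani spore inoculum. Incubation was 48 h at 27 °C in saturated air followed by 3 days in a 20 °C chamber. Visual scores express percent disease control versus untreated plants (0–100).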

Botrytis cinerea = assay: Test E: preventive spray on tomato seedlings, tomato Botrytis disease rating
Method in brief: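 Preventive test: one day after spraying seedlings to run-off with test suspension (ppm in acetone/water, 50–250 ppm PEG400), B. cinerea spores applied. Incubation 48 h at 20 °C saturated humidity plus 3 days at 24 °C preceded visual rating as percent disease control versus controls.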

Structure (SMILES)	Test D disease control rating (Phakopsora pachyrhizi; 50 ppm) [%]	Test B disease control rating ([1]; 50 ppm) [%]	Test C disease control rating ([2]; 50 ppm) [%]	Test A disease control rating (Zymoseptoria tritici; 50 ppm) [%]	Test F disease control rating (Alternaria solani; 50 ppm) [%]	Test E disease control rating (Botrytis cinerea; 50 ppm) [%]	Test D disease control rating (Phakopsora pachyrhizi; 250 ppm) [%]	Test B disease control rating ([1]; 250 ppm) [%]	Test C disease control rating ([2]; 250 ppm) [%]	Test A disease control rating (Zymoseptoria tritici; 250 ppm) [%]	Test F disease control rating (Alternaria solani; 250 ppm) [%]	Test E disease control rating (Botrytis cinerea; 250 ppm) [%]
COc1cc(OC)c(Cl)c(-n2nc(I)c(=O)c(C)c2-c2ccc(F)cc2Cl)c1 [Compound 96]	100	100	99	100	100	98						
CCOC(=O)c1nn(-c2cc(OC)cc(OC)c2Cl)c(-c2ccc(F)cc2Cl)c(C)c1=O [Compound 98]							94	98	0	0	0	96
COc1cc(OC)c(Cl)c(-n2nc(CO)c(=O)c(Cl)c2-c2ccc(F)cc2Cl)c1 [Compound 99]							99	100	95	100	96	93
COc1ccc(Cl)c(-n2nc(Br)c(=O)c(Cl)c2-c2ccc(F)cc2Cl)c1 [Compound 101]	99	99	89	98	98	98						
COc1ccc(Cl)c(-n2nc(Br)c(=O)c(Br)c2-c2ccc(F)cc2Cl)c1 [Compound 102]	99	99	0	97	88	99						
COc1ccc(Cl)c(-n2nc(Cl)c(=O)c(Cl)c2-c2ccc(F)cc2Cl)c1 [Compound 103]	100	100	97	100	99	100						
COc1ccc(Cl)c(-n2nc(OC)c(=O)cc2-c2ccc(F)cc2Cl)c1 [Compound 118]	0	99	56	80	0	97						
COC(=O)c1nn(-c2cc(OC)ccc2Cl)c(-c2ccccc2F)c(Cl)c1=O [Compound 122]	0	19	0	0	0	0						
COc1ccc(Cl)c(-n2nc(C)c(=O)c(Cl)c2-c2ccc(F)cc2Cl)c1 [Compound 123, 5-chloro-1-(2-chloro-5-methoxyphenyl)-6-(2-chloro-4-fluorophenyl)-3-methyl-4(1)-pyridazinone]	100	100	100	100	100	99						
COc1ccc(Cl)c(-n2nc(C)c(=O)c(Br)c2-c2ccc(F)cc2Cl)c1 [Compound 124, 5-bromo-1-(2-chloro-5-methoxyphenyl)-6-(2-chloro-4-fluorophenyl)-3-methyl-4(1)-pyridazinone]	100	100	100	100	100	99						
CCOC(=O)c1nn(-c2cc(OC)cc(OC)c2)c(-c2ccc(F)cc2)c(C(=O)OCC)c1=O [Compound 125]	0	28	0	3	0	0						
CCOC(=O)c1nn(-c2cc(OC)cc(OC)c2Cl)c(-c2ccc(F)cc2)c(C(=O)OCC)c1=O [Compound 126]	0	28	0	0	0	0						
CCOC(=O)c1nn(-c2cc(OC)cc(OC)c2Cl)c(-c2ccc(F)cc2F)c(C(=O)OCC)c1=O [Compound 127]	0	41	0	0	0	0						
COc1ccc(-c2c(Cl)c(=O)c(C)nn2-c2cc(OC)ccc2Cl)c(Cl)c1 [Compound 129]	99	100	99	100	100	98						
COc1ccc(-c2c(Br)c(=O)c(C)nn2-c2cc(OC)ccc2Cl)c(Cl)c1 [Compound 130]	98	100	99	100	100	99						
COc1ccc(Cl)c(-n2nc(Cl)c(=O)c(Br)c2-c2ccc(F)cc2Cl)c1 [Compound 134]	100	100	86	100	99	99						
COc1ccc(Cl)c(-n2nc(NC(C)=O)c(=O)cc2-c2ccc(F)cc2Cl)c1 [Compound 135]	0	89	0	41	0	94						
COc1ccc(Cl)c(-n2nc(Br)c(=O)cc2-c2ccc(F)cc2Cl)c1 [Compound 136]	0	99	68	82	0	99						
COc1cc(OC)cc(-c2cc(C#N)c(=O)n(N)c2-c2c(F)cc(F)cc2F)c1 [Compound 153]	0	80	0	0	0	0						
COc1ccc(Cl)c(-c2cc(C#N)c(=O)n(C)c2-c2ccc(F)cc2Cl)c1 [Compound 154]	59	98	35	100	0	98						
CCn1c(-c2ccc(F)cc2Cl)c(-c2cc(OC)cc(OC)c2)cc(C#N)c1=O [Compound 155]	0	89	0	8	0	92						
